Reference: PubChem BioAssay (NCI)
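Cultured in 96-well plates, cells were exposed to test compound for 48 hours across five concentrations. Here, GI50 denotes the concentration required for 50% inhibition of growth. Definition used: TGI = concentration required for complete inhibition of growth.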

Tests used:
Test in all cases: growth of human tumour cells (NCI), 48 h
[1] = tested on: KM12 colon
[2] = tested on: COLO 205 colon
[3] = tested on: SNB-75 CNS
[4] = tested on: SF-295 CNS
[5] = tested on: SK-MEL-5 melanoma
[6] = tested on: CAKI-1 renal
[7] = tested on: OVCAR-8 ovarian
[8] = tested on: SN12C renal
[9] = tested on: SW-620 colon
[10] = tested on: NCI/ADR-RES ovarian

SMILES: COC(=O)C(=O)C(C(=O)C(=O)Nc1ccc(C)cc1C)c1nc2ccccc2[nH]c1=O (stereo not drawn)
- TGI [1]: > 100 µM
- TGI [2]: > 100 µM
- TGI [3]: 69.2 µM
- TGI [4]: > 100 µM
- TGI [5]: > 100 µM
- TGI [6]: 68.9 µM
- TGI [7]: > 100 µM
- TGI [8]: > 100 µM
- TGI [9]: > 100 µM

SMILES: CCc1cccc(C)c1NC(C)=O
- TGI [1]: > 100 µM
- TGI [3]: > 100 µM
- TGI [4]: > 100 µM
- TGI [5]: > 100 µM
- TGI [6]: > 100 µM
- TGI [7]: > 100 µM
- TGI [9]: > 100 µM

SMILES: COC(=O)C(=O)C(C(=O)C=C(C)C)C(=O)C(=O)Nc1ccc(Cl)cc1C (stereo not drawn)
- TGI [1]: > 100 µM
- TGI [2]: > 100 µM
- TGI [3]: > 100 µM
- TGI [4]: > 100 µM
- TGI [5]: > 100 µM
- TGI [6]: > 100 µM
- TGI [7]: > 100 µM
- TGI [8]: > 100 µM

SMILES: Cc1cc(NS(=O)(=O)c2ccc(NC(=O)c3cccc4c(=O)c5ccccc5[nH]c34)cc2)no1
- TGI [1]: > 100 µM
- TGI [2]: > 100 µM
- TGI [3]: 85.4 µM
- TGI [5]: > 100 µM
- TGI [6]: > 100 µM
- TGI [7]: 67.4 µM
- TGI [8]: > 100 µM
- TGI [9]: > 100 µM

SMILES: Cc1ccc(N=NC(C(=O)c2ccccc2)C(=O)c2ccccc2)cc1
- TGI [1]: > 100 µM
- TGI [2]: 52.4 µM
- TGI [3]: 93.4 µM
- TGI [4]: > 100 µM
- TGI [5]: 55.1 µM
- TGI [6]: 85 µM
- TGI [7]: > 100 µM
- TGI [8]: 55.2 µM
- TGI [9]: > 100 µM

SMILES: Cc1c2c(nn1-c1ccc(S(=O)(=O)/N=C3\SCC(=O)N3C(=O)c3ccccc3)cc1)-c1ccccc1CC2
- GI50 [1]: 51.4 µM
- TGI [1]: > 100 µM
- GI50 [10]: > 100 µM
- TGI [10]: > 100 µM
- GI50 [4]: 21.6 µM
- TGI [4]: 58.2 µM
- GI50 [5]: 25.1 µM
- TGI [5]: 48.9 µM
- GI50 [6]: 26.6 µM
- TGI [6]: 65.9 µM
- GI50 [7]: 68.8 µM
- TGI [7]: > 100 µM
- GI50 [8]: 19.2 µM
- TGI [8]: 45.8 µM
- GI50 [9]: > 100 µM
- TGI [9]: > 100 µM

SMILES: CC(=O)SCCC1c2[nH]c3ccccc3c2CCN1O (stereo not drawn)
- TGI [1]: > 100 µM
- TGI [2]: > 100 µM
- TGI [3]: 86.4 µM
- TGI [4]: > 100 µM
- TGI [5]: > 100 µM
- TGI [6]: > 100 µM
- TGI [7]: > 100 µM
- TGI [8]: > 100 µM
- TGI [9]: > 100 µM

SMILES: CC[C@H](C)[C@H](NC(=O)[C@H]1CCCCN1C)C(=O)N(C)[C@H](CCc1nc(C(=O)N[C@@H](Cc2ccccc2)C[C@H](C)C(=O)OC)cs1)C(C)C
- GI50 [1]: 0.261 µM
- TGI [1]: > 25 µM
- GI50 [10]: 1.38 µM
- TGI [10]: > 25 µM
- GI50 [2]: 0.167 µM
- TGI [2]: 0.916 µM
- GI50 [3]: 0.276 µM
- TGI [3]: 7.65 µM
- GI50 [4]: 0.459 µM
- TGI [4]: > 25 µM
- GI50 [5]: 0.0745 µM
- TGI [5]: 1.02 µM
- GI50 [7]: 0.717 µM
- TGI [7]: > 25 µM
- GI50 [8]: 0.773 µM
- TGI [8]: > 25 µM
- GI50 [9]: 0.213 µM
- TGI [9]: > 25 µM

SMILES: Cc1cccc(N2C(=O)C(Cl)=C(Cl)C2=O)c1
- TGI [1]: > 100 µM
- TGI [2]: > 100 µM
- TGI [3]: > 100 µM
- TGI [4]: > 100 µM
- TGI [5]: > 100 µM
- TGI [6]: > 56.9 µM
- TGI [7]: > 100 µM
- TGI [8]: > 100 µM
- TGI [9]: > 60.7 µM

SMILES: CCCCn1c(-c2ccc(C(=O)O/N=C(\N)c3ccc(OC)cc3)cc2)nc(-c2ccccc2)c1-c1ccccc1
- GI50 [1]: 2.91 µM
- TGI [1]: > 100 µM
- GI50 [3]: 1.36 µM
- TGI [3]: 3.05 µM
- GI50 [4]: 1.53 µM
- TGI [4]: 2.97 µM
- GI50 [6]: 1.29 µM
- TGI [6]: 2.71 µM
- GI50 [8]: 1.84 µM
- TGI [8]: 4.46 µM
